These results are taken from patent publication US20210123061A1, “METHODS AND COMPOSITIONS FOR TREATING INFLAMMATORY DISEASE OR DISORDER” (THE BRIGHAM AND WOMEN'S HOSPITAL, INC., priority 2018, published 2021).

One test deals with phospho-RSK1-Ser380. The test is described as follows: Anti-RSK1 immunoprecipitation and immunoblot in IFN-γ-stimulated PBMC-derived macrophages. It counts as cell-based, human. Conditions: 10 μM pre-treatment two hours, IFN-γ up to 90 minutes, serum starvation. Here is the method:
FIGS. 3A-3F show RSK1 is activated through JAK signaling and its inhibition suppresses STAT1 phosphorylation at Ser727 in human primary macrophages in response to IFN-γ. (FIG. 3A) PBMC-derived macrophages were pre-treated with DMSO or 10 μM a pan-JAK inhibitor, pyridone-6, for two hours and then stimulated with IFN-γ for indicated time under serum starvation. Cell lysates were subjected to immunoprecipitation with normal IgG or anti-RSK1 followed by immunoblot analysis using the indicated antibodies. WCL, whole cell lysate. N=3 donors. (FIG. 3B) Immunoblots of cell lysates from macrophages that were transfected with control siRNA or RSK1 siRNA followed by stimulation with IFN-γ for indicated time under serum starvation. N=2 donors. (FIG. 3C) Immunoblots of cell lysates from macrophages that were pre-treated with DMSO or BI-D1870 for two hours and subsequently left unstimulated or stimulated with IFN-γ for 1 hour under serum starvation. (FIG. 3D) Densitometric based quantification (ImageJ Software) of STAT1-pSer727 in panel (FIG. 3C) plus three additional donors. The phosphorylation levels in cells pretreated with DMSO and stimulated were defined as 1.0. Data are means±SE. […] (FIG. 3F) Quantification of PRM ions (MS/MS ions) of the indicated STAT1 peptide harboring a phosphorylation at Ser727 (and oxidized methionine, m), generated from the digest of panel […]. […]

Test [1] concerns STAT1 phosphorylation (Ser727, Tyr701). The test is described as follows: Immunoblot of STAT1 phosphorylation in IFN-γ-stimulated PBMC-derived macrophages. It counts as cell-based, human. Conditions: 10 μM pre-treatment, IFN-γ, cell lysates. Here is the method:
FIGS. 3A-3F show RSK1 is activated through JAK signaling and its inhibition suppresses STAT1 phosphorylation at Ser727 in human primary macrophages in response to IFN-γ. (FIG. 3A) PBMC-derived macrophages were pre-treated with DMSO or 10 μM a pan-JAK inhibitor, pyridone-6, for two hours and then stimulated with IFN-γ for indicated time under serum starvation. Cell lysates were subjected to immunoprecipitation with normal IgG or anti-RSK1 followed by immunoblot analysis using the indicated antibodies. WCL, whole cell lysate. N=3 donors. (FIG. 3B) Immunoblots of cell lysates from macrophages that were transfected with control siRNA or RSK1 siRNA followed by stimulation with IFN-γ for indicated time under serum starvation. N=2 donors. (FIG. 3C) Immunoblots of cell lysates from macrophages that were pre-treated with DMSO or BI-D1870 for two hours and subsequently left unstimulated or stimulated with IFN-γ for 1 hour under serum starvation. (FIG. 3D) Densitometric based quantification (ImageJ Software) of STAT1-pSer727 in panel (FIG. 3C) plus three additional donors. The phosphorylation levels in cells pretreated with DMSO and stimulated were defined as 1.0. Data are means±SE. N=6 donors. **P<0.01 indicate significance for phosphorylation levels compared to control (treatment with DMSO and IFN-γ) by Dunnett's comparison test. (FIG. 3E) Macrophages were treated with DMSO or BI-d1870 for two hours followed by IFN-γ stimulation under serum starvation. Cell lysates were subjected to immunoprecipitation with normal IgG or anti-STAT1-pSer727 followed by SYPRO ruby stain or immunoblot analysis with the indicated antibodies. Immunoprecipitants in the gel (red square) were in-gel digested for parallel reaction monitoring (PRM) mass spectrometry. (FIG. 3F) Quantification of PRM ions (MS/MS ions) of the indicated STAT1 peptide harboring a phosphorylation at Ser727 (and oxidized methionine, m), generated from the digest of panel […].
Cell culture of human PBMC-derived primary macrophages. […]

As to `CC(C)(C)c1nc2c3cc[nH]c(=O)c3c3cc(F)ccc3c2[nH]1` [Pyridone-6], in the test with phospho-RSK1-Ser380, the phospho-RSK1-Ser380 signal result is given as “marked suppression”. Also, the phospho-STAT-Ser727 signal result in test [1] is recorded as “similar”.
